Experimental findings from ChEMBL document CHEMBL1159000, “Anti-AIDS agents, 4. Tripterifordin, a novel anti-HIV principle from Tripterygium wilfordii: isolation and structural elucidation” (J Nat Prod, 1992) are described below.

Converted amounts (≈) assume the structure as drawn.

In general, EC50 refers to the concentration needed to bring the measured effect to its halfway point. A higher EC50 goes with lower potency in that assay.

The test system of series [1] is Human immunodeficiency virus 1. The experiment in a line: Antiviral activity against HIV1 3B replication in human H9 cells after 1 hr by p24 antigen capture assay. It is filed as functional, organism-based. Conditions: Human immunodeficiency virus 1, 3B, H9, 1 h.
The next series relates to H9. The experiment in a line: Inhibition human H9 cell growth assessed as cell density at 15 uM after 3 days by cell count assay. The format is cell-based. Conditions: h9, 72 h.

On to `C[C@@]1(O)C[C@@]23CC[C@H]4[C@@]5(CCC[C@]4(C)C(=O)OC5)[C@@H]2CC[C@H]1C3` [TRIPTERIFORDIN], for which the EC50 in series [1] came out at 1 µg/mL (≈ 3.14 µM). Besides, the Activity entry in the series on H9 is recorded as “Non-toxic”.
